Measured values: PubChem BioAssay AID330 (DTP/NCI, 2004)
“And” between values parts separate entries of the source, which are not always exact repeats. Equal entries are not always repeated. Inconclusive results and toxic doses are left out.

System: P388 leukemia ip, CD2F1 mice, survival T/C
Assay: NCI In Vivo Anticancer Drug Screen. Data for tumor model P388 Leukemia (intraperitoneal) in CD2F1 (CDF1) mice
Conditions: endpoint: median survival time, higher = longer survival
How it was run: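 Mice carrying the transplanted tumor received test compound or vehicle. Survival was recorded in each group, and the value is the treated-group measurement divided by that of the vehicle-treated control group.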

[1] = dose: 50.0 mg/kg/injection, schedule: Q01DX005 (ip), vehicle: saline with Tween-80
[2] = dose: 100.0 mg/kg/injection, schedule: Q01DX005 (ip), vehicle: saline with Tween-80
[3] = dose: 200.0 mg/kg/injection, schedule: Q01DX005 (ip), vehicle: saline with Tween-80
[4] = dose: 12.5 mg/kg/injection, schedule: Q01DX009 (ip), vehicle: Klucel (hydroxypropylcellulose) (HPC)
[5] = dose: 25.0 mg/kg/injection, schedule: Q01DX009 (ip), vehicle: Klucel (hydroxypropylcellulose) (HPC)
[6] = dose: 50.0 mg/kg/injection, schedule: Q01DX009 (ip), vehicle: Klucel (hydroxypropylcellulose) (HPC)
[7] = dose: 100.0 mg/kg/injection, schedule: Q01DX009 (ip), vehicle: Klucel (hydroxypropylcellulose) (HPC)
[8] = dose: 50.0 mg/kg/injection, schedule: Q01DX009 (ip), vehicle: saline with Tween-80
[9] = dose: 12.5 mg/kg/injection, schedule: Q01DX005 (ip), vehicle: saline with Tween-80
[10] = dose: 25.0 mg/kg/injection, schedule: Q01DX005 (ip), vehicle: saline with Tween-80
[11] = dose: 60.0 mg/kg/injection, schedule: Q01DX005 (ip), vehicle: saline with Tween-80
[12] = dose: 120.0 mg/kg/injection, schedule: Q01DX005 (ip), vehicle: saline with Tween-80
[13] = dose: 240.0 mg/kg/injection, schedule: Q01DX005 (ip), vehicle: saline with Tween-80
[14] = dose: 25.0 mg/kg/injection, schedule: Q01DX009 (ip), vehicle: saline with Tween-80
[15] = dose: 200.0 mg/kg/injection, schedule: Q01DX009 (ip), vehicle: saline with Tween-80

In the case of `CC(C)(C)c1ccnc(C(O)(C(F)(F)F)C(F)(F)F)c1`, the T/C (dose: 25.0 mg/kg/injection, schedule: Q01DX005 (ip), vehicle: Klucel (hydroxypropylcellulose) (HPC)) was 93 % of control, the T/C (dose: 50.0 mg/kg/injection, schedule: Q01DX005 (ip), vehicle: Klucel (hydroxypropylcellulose) (HPC)) was 101 % of control and the T/C (dose: 100.0 mg/kg/injection, schedule: Q01DX005 (ip), vehicle: Klucel (hydroxypropylcellulose) (HPC)) was 108 % of control. For the same compound, the T/C (dose: 200.0 mg/kg/injection, schedule: Q01DX005 (ip), vehicle: Klucel (hydroxypropylcellulose) (HPC)) was 103 % of control.
For `CC(=O)OC1CCC(C2CCCCC2)CC1` (stereo not given), the T/C (dose: 100.0 mg/kg/injection, schedule: Q01DX009 (ip), vehicle: saline) was 102 % of control, the T/C (dose: 200.0 mg/kg/injection, schedule: Q01DX009 (ip), vehicle: saline) was 97 % of control and the T/C (dose: 400.0 mg/kg/injection, schedule: Q01DX009 (ip), vehicle: saline) was 101 % of control.
In the case of `CC1CN2COC(=S)SSSSC(=S)OCN3CC(C)N(COC(=S)SSSSC(=S)OCN1CC2C)CC3C` (stereo not given), the T/C [1] was 99 % of control, the T/C [2] was 103 % of control and the T/C [3] was 106 % of control.
For `C=C(C)C1CC2(C)C(C)CC(OC(=O)/C(C)=C\C)CC2C(OC(=O)/C(C)=C\C)C1O` (stereo not given), the T/C [4] was 86 % of control, the T/C [5] was 96 % of control and the T/C [6] was 96 % of control. The T/C [7] was 100 % of control.
For `COC(=O)CCc1cc(=O)oc2c(I)c(O)cc(O)c12`, the T/C (dose: 8.75 mg/kg/injection, schedule: Q01DX005 (ip), vehicle: Klucel (hydroxypropylcellulose) (HPC)) was 99 % of control, the T/C (dose: 17.5 mg/kg/injection, schedule: Q01DX005 (ip), vehicle: Klucel (hydroxypropylcellulose) (HPC)) was 93 % of control and the T/C (dose: 35.0 mg/kg/injection, schedule: Q01DX005 (ip), vehicle: Klucel (hydroxypropylcellulose) (HPC)) was 101 % of control.
With `CC(=O)c1cccc(OC(=O)Nc2ccccc2)c1` the T/C [1] was 96 % of control, the T/C [2] was 90 % of control and the T/C [3] was 98 % of control.
In the case of `COc1cc[c]([Pb]([O]C(C)=O)([O]C(C)=O)[O]C(C)=O)cc1`, the T/C (dose: 100.0 mg/kg/injection, schedule: Q04DX003 (ip), vehicle: saline with Tween-80) was 103 % of control, the T/C (dose: 200.0 mg/kg/injection, schedule: Q04DX003 (ip), vehicle: saline with Tween-80) was 103 % of control and the T/C (dose: 400.0 mg/kg/injection, schedule: Q04DX003 (ip), vehicle: saline with Tween-80) was 111 % of control.
With `CC(=O)NCCNC(Cc1ccccc1)C(=O)O` (stereo not given) the T/C (dose: 25.0 mg/kg/injection, schedule: Q01DX001 (ip), vehicle: Klucel (hydroxypropylcellulose) (HPC)) was 108 % of control, the T/C (dose: 50.0 mg/kg/injection, schedule: Q01DX001 (ip), vehicle: Klucel (hydroxypropylcellulose) (HPC)) was 101 % of control and the T/C (dose: 100.0 mg/kg/injection, schedule: Q01DX001 (ip), vehicle: Klucel (hydroxypropylcellulose) (HPC)) was 100 % of control and 101 % of control.
For `CCCCCCCC/C=C\CCCCCCCC(=O)NCCCN(C)C`, the T/C (dose: 12.5 mg/kg/injection, schedule: Q01DX009 (ip), vehicle: saline) was 98 % of control, the T/C (dose: 25.0 mg/kg/injection, schedule: Q01DX009 (ip), vehicle: saline) was 91 % of control and the T/C [8] was 112 % of control.
`COc1cc(NCCCCCNCC(C)(C)C)c2ncccc2c1` was tested, and the T/C [9] was 109 % of control, the T/C [10] was 107 % of control and the T/C [1] was 91 % of control and 93 % of control.
For `Nc1nc2c(C(=O)c3ccco3)nnn2c2cccc(Cl)c12`, the T/C [11] was 100 % of control, the T/C [12] was 104 % of control and the T/C [13] was 104 % of control.
`COc1cc(C=Nc2cc(Br)cc(Br)c2)ccc1N(CCCl)CCCl` was tested, and the T/C (dose: 0.44 mg/kg/injection, schedule: Q01DX009 (ip), vehicle: saline with Tween-80) was 120 % of control, the T/C (dose: 0.66 mg/kg/injection, schedule: Q01DX009 (ip), vehicle: saline with Tween-80) was 105 % of control and the T/C (dose: 1.5 mg/kg/injection, schedule: Q01DX009 (ip), vehicle: saline with Tween-80) was 170 % of control. For the same compound, the T/C (dose: 2.25 mg/kg/injection, schedule: Q04DX003 (ip), vehicle: other) was 111 % of control, the T/C (dose: 2.5 mg/kg/injection, schedule: Q01DX009 (ip), vehicle: saline with Tween-80) was 165 % of control and the T/C (dose: 5.0 mg/kg/injection, schedule: Q01DX009 (ip), vehicle: saline with Tween-80) was 170 % of control. For the same compound, the T/C (dose: 9.0 mg/kg/injection, schedule: Q04DX003 (ip), vehicle: other) was 165 % of control, the T/C (dose: 10.0 mg/kg/injection, schedule: Q01DX009 (ip), vehicle: saline with Tween-80) was 110 % of control and the T/C (dose: 18.0 mg/kg/injection, schedule: Q04DX003 (ip), vehicle: other) was 223 % of control.
For `O=P(O)(O)SP(=O)(O)O.[Co]`, the T/C [6] was 105 % of control and the T/C [7] was 94 % of control.
For `O=C(N1CCCCCC1)N1CC1`, the T/C [6] was 93 % of control and the T/C [7] was 118 % of control.
With `CCOC(=O)SC(=S)OCC` the T/C (dose: 6.25 mg/kg/injection, schedule: Q01DX009 (ip), vehicle: saline with Tween-80) was 108 % of control, the T/C (dose: 12.5 mg/kg/injection, schedule: Q01DX009 (ip), vehicle: saline with Tween-80) was 114 % of control and the T/C [14] was 100 % of control. For the same compound, the T/C [8] was 87 % of control.
With `NC(Cc1ccccc1I)c1nn[nH]n1` (stereo not given) the T/C [14] was 107 % of control, the T/C [8] was 102 % of control and 105 % of control and 111 % of control and the T/C (dose: 100.0 mg/kg/injection, schedule: Q01DX009 (ip), vehicle: saline with Tween-80) was 98 % of control and 100 % of control and 95 % of control. The T/C [15] was 110 % of control and 97 % of control and the T/C (dose: 400.0 mg/kg/injection, schedule: Q01DX009 (ip), vehicle: saline with Tween-80) was 100 % of control and 96 % of control.
With `CCCCCCCCSc1nc2ccc(N=Cc3ccccc3O)cc2s1` the T/C [4] was 109 % of control, the T/C [5] was 94 % of control and the T/C [6] was 90 % of control and 92 % of control. For the same compound, the T/C (dose: 200.0 mg/kg/injection, schedule: Q01DX009 (ip), vehicle: Klucel (hydroxypropylcellulose) (HPC)) was 91 % of control.
With `CCC(=O)Nc1ncc([N+](=O)[O-])s1` the T/C [14] was 94 % of control, the T/C [8] was 86 % of control and the T/C [15] was 86 % of control.
In the case of `CCCCCCCCC(=O)c1c(OC)oc(/C=N/O)cc1=O`, the T/C [4] was 87 % of control.
With `C=CCc1cc(Nc2c3ccc(Cl)cc3nc3ccc(OC)cc23)cc(CN(CC)CC)c1O` the T/C (dose: 3.12 mg/kg/injection, schedule: Q01DX005 (ip), vehicle: Klucel (hydroxypropylcellulose) (HPC)) was 106 % of control and 110 % of control, the T/C (dose: 6.0 mg/kg/injection, schedule: Q01DX005 (ip), vehicle: Klucel (hydroxypropylcellulose) (HPC)) was 118 % of control and the T/C (dose: 6.25 mg/kg/injection, schedule: Q01DX005 (ip), vehicle: Klucel (hydroxypropylcellulose) (HPC)) was 109 % of control and 110 % of control. The T/C (dose: 12.0 mg/kg/injection, schedule: Q01DX005 (ip), vehicle: Klucel (hydroxypropylcellulose) (HPC)) was 123 % of control.
`Fc1ccc2[nH]cc(C3CCCN4CCCCC34)c2c1` (stereo not given) was tested, and the T/C (dose: 12.5 mg/kg/injection, schedule: Q01DX001 (ip), vehicle: saline with Tween-80) was 95 % of control, the T/C (dose: 25.0 mg/kg/injection, schedule: Q01DX001 (ip), vehicle: saline with Tween-80) was 101 % of control and the T/C (dose: 50.0 mg/kg/injection, schedule: Q01DX001 (ip), vehicle: saline with Tween-80) was 102 % of control. The T/C (dose: 100.0 mg/kg/injection, schedule: Q01DX001 (ip), vehicle: saline with Tween-80) was 101 % of control.
For `O=P(OCC(F)(F)F)(c1ccccc1)c1ccccc1`, the T/C [1] was 108 % of control, the T/C [2] was 104 % of control and the T/C [3] was 112 % of control.
`CC(C)(C)OC(=O)NC(CCC(=O)O)(Cc1ccccc1)C(=O)NC(CCC(=O)O)(Cc1ccccc1)C(=O)OCc1ccccc1` (stereo not given) was tested, and the T/C (dose: 6.25 mg/kg/injection, schedule: Q01DX005 (ip), vehicle: saline with Tween-80) was 98 % of control, the T/C [9] was 105 % of control and the T/C [10] was 88 % of control.
`COC1SCCn2c1nc1ccccc1c2=O` (stereo not given) was tested, and the T/C [11] was 107 % of control, the T/C [12] was 98 % of control and the T/C [13] was 99 % of control.
In the case of `CC1CCC2(OC1)OC1CC3C4CCC5CC(O)CCC5(C)C4CCC3(C)C1C2C` (stereo not given), the T/C (dose: 10.0 mg/kg/injection, schedule: Q01DX009 (ip), vehicle: Klucel (hydroxypropylcellulose) (HPC)) was 108 % of control, the T/C (dose: 20.0 mg/kg/injection, schedule: Q01DX009 (ip), vehicle: Klucel (hydroxypropylcellulose) (HPC)) was 117 % of control and the T/C (dose: 40.0 mg/kg/injection, schedule: Q01DX009 (ip), vehicle: Klucel (hydroxypropylcellulose) (HPC)) was 119 % of control.
